{"source": "patent US4248879A", "about": "“Benzopyranotriazoles” (Beecham Group Limited, priority 1978, dated 1981)", "key": {"[1]": {"test_system": "rat PCA", "test": "Passive Cutaneous Anaphylaxis (PCA) in rats", "assay_type": "in vivo, Male Wistar rats", "settings": "S.C.", "protocol": "Serum containing heat-labile homocytotropic antibody was raised in rats to crystallized ovalbumin XOA by the method of Mota (I. Mota, Immunology, 7, 681, (1964)) using Bordettela pertussis vaccine as adjuvant.\nPassive cutaneous anaphylaxis (PCA) was carried out by a method based on that of Ovary and Bier, (A. Ovary and O. G. Bier, Proc. Soc. Exp. Bio. Med 81, 584, (1952)) as modified by Goose and Blair. (Immunology 16, 749 (1969)).\nMale Wistar rats of 250-300 g were give 0.1 ml of each of six twofold serial dilutions of pooled antiserum in 0.9% saline injected intradermally into separate sites in their shaved backs. Later (72 hours) the animals were challenged by intravenous injection of 0.3 ml of a 1% solution of ovalbumin in an isotonic solution of saline buffered with 0.05 M, pH 7.2, Sorenson Buffer (PBS), mixed with 0.2 ml of a 5% solution of Pontamine Sky Blue (6BX C.I. 24410, Raymond A. Lamb, London) in isotonic saline. The rats were killed after 20 minutes and the diameter of the blue wheals at the antibody injection sites was measured on the outer surface of the skin. The starting dilution of the serum was adjusted so that there was no response, after challenge, at the injection site of the highest dilution and a maximum response at the lowest dilutions. Typically six twofold serial dilutions of the serum from 1/4 to 1/128 were used.\nCompounds were tested for their ability to reduce the diameter of the wheals at those intradermal sites which in control animals gave less than maximum response. Each dose of the compound was administered to six rats at a measured time prior to intravenous challenge with ovalbumin. Control groups of six rats were given the same volume (0.2 ml: 100 g^-1) of carrier fluid at the same time prior to the challenge.\nThe results were calculated as follows: % inhibition of PCA=100 (1-a/b) where a=the sum of the diameters of the wheals produced in the test animal at the sites of antibody dilutions as used in control groups and b=the mean sum of the diameters of the wheals produced in the control group of animals at those antibody sites where at least five out of six of the animals gave less than maximum response. A typical variation in the control group of animals was SEM±6%."}, "[2]": {"test": "LD50 (toxicity) in mice", "settings": "mouse, in vivo", "protocol": "The LD50 of the compound of Example 6 (d) is between 20 to 80 mg/kg i.v. and between 125 to 500 mg/kg per os, in mice."}, "[3]": {"settings": "PBS with NaHCO3, 10 mins before antigen challenge, 10 mg/kg"}, "[4]": {"settings": "PBS with NaHCO3, 30 mins before antigen challenge, 10 mg/kg"}, "[5]": {"settings": "PBS with NaHCO3, 10 mins before antigen challenge, 5 mg/kg"}, "[6]": {"settings": "PBS with NaHCO3, 30 mins before antigen challenge, 5 mg/kg"}, "[7]": {"settings": "PBS with NaHCO3, 10 mins before antigen challenge, 20 mg/kg"}, "[8]": {"settings": "PBS with NaHCO3, 30 mins before antigen challenge, 20 mg/kg"}}}
{"smiles": "Cc1cc(C)c2c(=O)c3[nH]nnc3oc2c1C", "note": "[Example 7, 9-oxo-5,6,8-Trimethyl-1H,9H-benzopyrano[2,3-d]-v-triazole]", "values": [{"measurement": "% Inhibitions of rat PCA", "setting": "[1]; [3]", "value": 40, "unit": "%"}, {"measurement": "% Inhibitions of rat PCA", "setting": "[1]; [4]", "value": 18, "unit": "%"}]}
{"smiles": "Cc1cc2oc3nn[nH]c3c(=O)c2cc1C", "note": "[Example 6d]", "values": [{"measurement": "LD50", "setting": "[2]; iv", "value": "20 to 80", "unit": "mg/kg"}, {"measurement": "LD50", "setting": "[2]; po, per os", "value": "125 to 500", "unit": "mg/kg"}, {"measurement": "% Inhibitions of rat PCA", "setting": "[1]; [5]", "value": 72, "unit": "%"}, {"measurement": "% Inhibitions of rat PCA", "setting": "[1]; [6]", "value": 22, "unit": "%"}]}
{"smiles": "Cc1ccc2oc3nn[nH]c3c(=O)c2c1C", "note": "[Example 6e, 7,8-dimethyl-1H,9H-benzopyrano[2,3-d]-v-triazole]", "values": [{"measurement": "% Inhibitions of rat PCA", "setting": "[1]; [5]", "value": 86, "unit": "%"}, {"measurement": "% Inhibitions of rat PCA", "setting": "[1]; [6]", "value": 45, "unit": "%"}]}
{"smiles": "O=c1c2ccccc2oc2nn[nH]c12", "note": "[Example 1, 9-Oxo-1H,9H-benzopyrano[2,3-d]-v-triazole]", "values": [{"measurement": "% Inhibitions of rat PCA", "setting": "[1]; [3]", "value": 83, "unit": "%"}, {"measurement": "% Inhibitions of rat PCA", "setting": "[1]; [4]", "value": 29, "unit": "%"}]}
{"smiles": "Cc1ccc2c(=O)c3[nH]nnc3oc2c1C", "note": "[Example 5, 5,6-Dimethyl-9-oxo-1H,9H-benzopyrano[2,3-d]-v-triazole]", "values": [{"measurement": "% Inhibitions of rat PCA", "setting": "[1]; [7]", "value": 64, "unit": "%"}, {"measurement": "% Inhibitions of rat PCA", "setting": "[1]; [8]", "value": 14, "unit": "%"}]}
{"smiles": "Cc1ccc2oc3nn[nH]c3c(=O)c2c1", "note": "[Example 3, 7-Methyl-9-oxo-1H,9H-benzopyrano[2,3]-v-triazole]", "values": [{"measurement": "% Inhibitions of rat PCA", "setting": "[1]; [3]", "value": 78, "unit": "%"}, {"measurement": "% Inhibitions of rat PCA", "setting": "[1]; [4]", "value": 41, "unit": "%"}]}
{"smiles": "COc1ccc2oc3nn[nH]c3c(=O)c2c1", "note": "[Example 4, 7-Methoxy-9-oxo-1H,9H-benzopyrano[2,3-d]-v-triazole]", "values": [{"measurement": "% Inhibitions of rat PCA", "setting": "[1]; [7]", "value": 66, "unit": "%"}, {"measurement": "% Inhibitions of rat PCA", "setting": "[1]; [8]", "value": 35, "unit": "%"}]}
